This note sets out measurements from US20110020462A1, “NEW USE OF HISTONE DEACETYLASE INHIBITORS IN CHANGING MRJP3 PROTEIN IN ROYAL JELLY” (NATUREWISE BIOTECH & MEDICALS CORPORATION, priority 2009, published 2011).

One assay has as its system larvae of the queen bee. The assay can be described thus: Growth (weight) of larvae of the queen bee fed royal jelly secreted by young worker bees fed the test substance in sugar water. It counts as in vivo, Apis mellifera.
In another assay the test system is MRJP3. The assay can be described thus: Ratio of 68 to 64 kDa MRJP3 protein in royal jelly (SDS-PAGE). It counts as in vivo, Apis mellifera. As to the method:
Beehives with the similar expression level of MRJP3 protein were selected for use, and two beehives were tested in each control or experimental group. On the first day, the honey originally contained in the beehives was removed by shaking, and the bees (Apis mellifera) were fed sugar water twice (normal sugar water for the control group and special sugar water for the experimental group) for two days. The special sugar water was a 10-fold dilution of the formulated sugar powder in water. On the third day, 1.5-day old larvae (which were the offspring of the same queen) were inserted into the beehives, and the bees were fed once (normal sugar water for the control group and special sugar water for the experimental group). After 24, 48, and 72 hrs, 20 larvae and the royal jelly in the cells of said 20 larvae were collected for qualitative, quantitative, and proteomic analyses.
For qualitative analysis, royal jelly and sterilized water at a weight ratio of 1:10 was mixed for extraction. A particular amount of the proteins in the aqueous layer were removed for determination of protein concentration by Bradford dye-binding method (Bio-Rad protein assay, Bio-Rad Laboratories, Inc.). The absorption at 595 nm of the protein samples was determined by Elisa Reader (Bio-TEK). […]

Regarding `CC(C)=CCC/C(C)=C/Cc1c(O)cc2c(c1O)C(=O)C[C@@H](c1ccc(O)c(O)c1)O2` [Propolin C, propolin C], in the assay with larvae of the queen bee (Example 4, 100 mg/kg, period of 48 to 72 hours, control around 3.58 fold), the larva weight increase result is recorded as “around 6.30 fold”. The “Average weight of each larva” value with larvae of the queen bee (Table 5, 50 mg/kg, 24 h, control 3.52) is 2.40 mg; in the assay with larvae of the queen bee (Table 5, 50 mg/kg, 48 h, control 13.45), 15.2 mg; in the assay with larvae of the queen bee (Table 5, 50 mg/kg, 72 h, control 61.60), 70.17 mg; in the assay with larvae of the queen bee (Table 5, 100 mg/kg, 24 h, control 3.52), 2.38 mg; with larvae of the queen bee (Table 5, 100 mg/kg, 48 h, control 13.45) it was 13.48 mg; with larvae of the queen bee (Table 5, 100 mg/kg, 72 h, control 61.60) it was 98.48 mg. The “protein components of the royal jelly secreted by young worker bees” value in the assay on MRJP3 (50 to 100 mg/kg) is “significantly changed”.

Regarding `O=C(CCCCCCC(=O)Nc1ccccc1)NO` [SAHA, suberoylanilide hydroxamide acid, reference compound], the “Average weight of each larva” value in the assay with larvae of the queen bee (Table 8, 5 mg/kg, 24 h, control 1.9) was 4.0 mg; with larvae of the queen bee (Table 8, 5 mg/kg, 48 h, control 13.3), 28.2 mg; with larvae of the queen bee (Table 8, 5 mg/kg, 72 h, control 38.4) it was 149.3 mg; in the assay with larvae of the queen bee (Table 8, 15 mg/kg, 24 h, control 1.9) it was 7.3 mg; in the assay on larvae of the queen bee (Table 8, 15 mg/kg, 48 h, control 13.3), 41.0 mg; with larvae of the queen bee (Table 8, 15 mg/kg, 72 h, control 38.4), 149.2 mg. Moreover, the “ratio of the protein components of the royal jelly secreted by young worker bees” value with MRJP3 (5 to 15 mg/kg) was “significantly changed”.

Turning to `CC(C)=CCC/C(C)=C/Cc1c([C@@H]2CC(=O)c3c(cc(O)c(CC=C(C)C)c3O)O2)ccc(O)c1O` [Propolin G, propolin G], the larva weight increase result is given as “around 5.05 fold” with larvae of the queen bee (Example 5, 300 mg/kg, period of 24 to 48 hours, control around 1.60 fold) and “around 5.79 fold” in the assay with larvae of the queen bee (Example 5, 300 mg/kg, period of 48 to 72 hours, control around 1.22 fold). Also, the “Average weight of each larva” value is given as 5.73 mg with larvae of the queen bee (Table 6, 150 mg/kg, 24 h, control 5.23); 54.2 mg with larvae of the queen bee (Table 6, 150 mg/kg, 48 h, control 13.57); 156.63 mg with larvae of the queen bee (Table 6, 150 mg/kg, 72 h, control 30.07); 3.93 mg in the assay with larvae of the queen bee (Table 6, 300 mg/kg, 24 h, control 5.23); 23.80 mg in the assay on larvae of the queen bee (Table 6, 300 mg/kg, 48 h, control 13.57); 161.73 mg with larvae of the queen bee (Table 6, 300 mg/kg, 72 h, control 30.07). Moreover, the “Average weight of each larva” value with larvae of the queen bee (Table 6, 600 mg/kg, 24 h, control 5.23) is on record as 2.70 mg; in the assay on larvae of the queen bee (Table 6, 600 mg/kg, 48 h, control 13.57), 13.67 mg; in the assay with larvae of the queen bee (Table 6, 600 mg/kg, 72 h, control 30.07), 85.67 mg; with larvae of the queen bee (Table 8, positive control 150 mg/kg, 24 h, control 1.9), 3.6 mg; in the assay with larvae of the queen bee (Table 8, positive control 150 mg/kg, 48 h, control 13.3), 41.2 mg; with larvae of the queen bee (Table 8, positive control 150 mg/kg, 72 h, control 38.4) it was 178.6 mg.
